Key:
human μ opiate receptor = target: T1, human μ opiate receptor (Homo sapiens, UniProt P35372); assay: Affinity for the human μ opiate receptor ([3H]-naloxone displacement, CHO-K1 receptor membrane preparation, SPA); assay type: binding; conditions: test concentration of 1 μM
T1 construct: purchased PerkinElmer Life Sciences, Zaventem, Belgium RB-HOM; host or cells: CHO-K1 cells (membrane preparation)
Method in brief: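 SPA, CHO-K1 hμ membranes; 1 nmol/l [3H]-naloxone; Tris-HCl 50 mmol/l + 0.06% BSA; 90 min RT; NSB with 100 μmol/l naloxone; β-counting. Readout: % inhibition of specific binding at 1 μM test compound.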

[1] = target: T2, serotonin (5-HT) reuptake (Rattus norvegicus, UniProt P31652); assay: Inhibition of serotonin (5HT) reuptake in synaptosomes from rat brain; assay type: biochemical; conditions: test concentration of 10 μM
T2 construct: synaptosomes are freshly isolated from areas of the rat brain; from tissue; host or cells: rat brain synaptosomes (P2 fraction)
T2 sequence (P31652 whole entry): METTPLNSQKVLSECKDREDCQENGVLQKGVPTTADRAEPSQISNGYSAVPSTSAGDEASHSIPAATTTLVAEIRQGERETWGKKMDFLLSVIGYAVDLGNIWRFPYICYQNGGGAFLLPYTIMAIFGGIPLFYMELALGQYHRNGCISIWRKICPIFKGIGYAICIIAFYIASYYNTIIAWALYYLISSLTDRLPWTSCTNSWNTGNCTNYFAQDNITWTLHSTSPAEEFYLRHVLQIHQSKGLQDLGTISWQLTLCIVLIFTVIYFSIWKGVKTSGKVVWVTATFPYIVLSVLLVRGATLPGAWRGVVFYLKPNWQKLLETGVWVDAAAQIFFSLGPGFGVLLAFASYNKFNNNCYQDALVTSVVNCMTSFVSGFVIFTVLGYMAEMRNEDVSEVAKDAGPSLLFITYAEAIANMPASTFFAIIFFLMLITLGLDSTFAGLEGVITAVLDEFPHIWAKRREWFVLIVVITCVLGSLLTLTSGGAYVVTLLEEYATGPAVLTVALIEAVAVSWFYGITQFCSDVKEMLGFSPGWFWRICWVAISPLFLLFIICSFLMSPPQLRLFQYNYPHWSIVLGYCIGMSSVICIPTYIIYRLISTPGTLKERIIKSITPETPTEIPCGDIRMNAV
Method in brief: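 Compounds screened at 10 μM and reported as percent inhibition of serotonin uptake. Uptake measured in a freshly prepared P2 synaptosomal fraction from rat brain.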

T1 sequence (P35372 whole entry): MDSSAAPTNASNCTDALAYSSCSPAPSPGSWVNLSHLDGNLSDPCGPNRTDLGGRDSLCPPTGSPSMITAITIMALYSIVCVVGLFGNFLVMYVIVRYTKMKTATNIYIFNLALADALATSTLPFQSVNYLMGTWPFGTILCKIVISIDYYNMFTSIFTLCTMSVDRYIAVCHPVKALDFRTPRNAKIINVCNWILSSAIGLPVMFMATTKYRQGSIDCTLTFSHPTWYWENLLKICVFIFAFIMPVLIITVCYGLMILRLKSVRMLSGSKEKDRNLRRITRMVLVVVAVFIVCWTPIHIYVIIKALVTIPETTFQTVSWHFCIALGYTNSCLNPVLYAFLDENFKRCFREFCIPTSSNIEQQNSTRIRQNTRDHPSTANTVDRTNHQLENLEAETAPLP

SMILES | μ (binding on the μ opioid receptor, % inhibition) (human μ opiate receptor) [%] | 5-HT (inhibition of reuptake of serotonin, % inhibition) [1] [%]
CN(C)C(c1cccc(F)c1)C1CCC(CCNC(=O)COCCN(Cc2ccccc2)S(=O)(=O)c2ccccc2)CC1 (stereo not drawn) [Example 278] | 77 | 98
COc1cc(C)c(S(=O)(=O)N2CCCC(OCC(=O)NC3CCC(C(c4cccc(F)c4)N(C)C)CC3)C2)c(C)c1C (stereo not drawn) [Example 279] | 77 | 85
COc1ccc(S(=O)(=O)N2CCCCC2COCC(=O)NCC2CCC(C(c3ccc(Cl)cc3)N(C)C)CC2)c(OC)c1 (stereo not drawn) [Example 280] | 73 | 78
COc1ccc(S(=O)(=O)N2CCCCC2COCC(=O)NCCC2CCC(C(c3cccc(F)c3)N(C)C)CC2)c(OC)c1 (stereo not drawn) [Example 281] | 77 | 89
CN(C)C(c1cccs1)C1CCC(NC(=O)COCCN(C)S(=O)(=O)c2ccc(OC(F)(F)F)cc2)CC1 (stereo not drawn) [Example 282] | 74 | 52
CN(C)C(c1cccc(F)c1)C1CCC(NC(=O)COC2CCN(S(=O)(=O)c3ccc(Cl)cc3Cl)C2)CC1 (stereo not drawn) [Example 283] | 74 | 91
CN(C)C(c1ccc(Cl)cc1)C1CCC(CNC(=O)COCCN(C)S(=O)(=O)c2ccc(Cl)cc2)CC1 (stereo not drawn) [Example 284] | 70 | 87
CN(C)C(c1ccc(F)cc1)C1CCC(CCNC(=O)COCCN(C)S(=O)(=O)c2c(Cl)cccc2Cl)CC1 (stereo not drawn) [Example 285] | 69 | 89
COc1cc(C)c(S(=O)(=O)N2CCC(OCC(=O)NC3CCC(C(c4cccc(F)c4)N(C)C)CC3)CC2)c(C)c1C (stereo not drawn) [Example 286] | 76 | 92
COc1cc(C)c(S(=O)(=O)N2CCC(OCC(=O)NCC3CCC(C(c4cccc(F)c4)N(C)C)CC3)CC2)c(C)c1C (stereo not drawn) [Example 287] | 71 | 96
COc1ccc(S(=O)(=O)N2Cc3ccccc3CC2COCC(=O)NCC2CCC(C(c3ccc(F)cc3)N(C)C)CC2)cc1 (stereo not drawn) [Example 288] | 65 | 94
CN(C)C(c1ccc(Cl)cc1)C1CCC(CCNC(=O)COCCN(C)S(=O)(=O)c2cccc(C(F)(F)F)c2)CC1 (stereo not drawn) [Example 289] | 67 | 94
CN(C)C(c1ccc(F)cc1)C1CCC(NC(=O)COC2CCN(S(=O)(=O)c3ccc(Cl)cc3Cl)C2)CC1 (stereo not drawn) [Example 290] | 67 | 89
CN(C)C(c1ccc(Cl)cc1)C1CCC(CCNC(=O)COCCN(C)S(=O)(=O)c2ccc(Cl)cc2Cl)CC1 (stereo not drawn) [Example 291] | 65 | 81
COc1ccc(S(=O)(=O)N(C)CCOCC(=O)NCCC2CCC(C(c3cccc(F)c3)N(C)C)CC2)cc1 (stereo not drawn) [Example 292] | 74 | 83
COc1ccc(S(=O)(=O)N(C)CCOCC(=O)NCCC2CCC(C(c3cccc(F)c3)N(C)C)CC2)cc1OC (stereo not drawn) [Example 293] | 75 | 95
CN(C)C(c1ccc(Cl)cc1)C1CCC(CNC(=O)COCC2CCCN(S(=O)(=O)c3ccccc3)C2)CC1 (stereo not drawn) [Example 294] | 63 | 88
CN(C)C(c1cccc(F)c1)C1CCC(CCNC(=O)COCC2CCCN(S(=O)(=O)c3ccccc3)C2)CC1 (stereo not drawn) [Example 295] | 71 | 99

— patent US8106055B2, “Substituted amide compounds” (Gruenenthal GmbH, priority 2007, dated 2012)
